The text below walks through data of publication PMC9022596, “Convergent Evolution of Antibiotic Tolerance in Patients with Persistent Methicillin-Resistant Staphylococcus aureus Bacteremia” (Infection and Immunity, 2022).

Holding throughout (assay): microbe, parasite or virus in culture
Set-up in all cases: Broth microdilution MIC in cation-adjusted MHB-Ca2+, growth inhibition per EUCAST reading

The subject of assay [1] is T1, Staphylococcus aureus PB0113.
T1 construct: PB0113
To be noted: PB0113, 16 h. The method, then:
(§1) MICs were measured in cation-adjusted Mueller-Hinton broth (MHB) supplemented with 50 μg/mL CaCl2 (MHB-Ca^2+) via broth microdilution in 96-well plates with an inoculum of ∼5 × 10^5 CFU per mL. Antibiotic test concentrations ranged from 0.0625 μg/mL to 32 μg/mL by 2-fold dilutions. Plates were incubated at 37°C for 16 h without shaking, and results were interpreted in accordance with European Committee on Antimicrobial Susceptibility Testing reading guidelines ([72]). S. aureus ATCC 29213 was used as a quality-control strain. TCA cycle defects have been shown previously to cause antibiotic tolerance in laboratory strains of methicillin-sensitive S. aureus (MSSA) ([13], [16]). […] To test this hypothesis, we complemented three of the clinical isolates harboring loss-of-function citZ mutations with either wild-type citZ (pOS1-citZ) or empty vector (pOS1) and then measured bacterial survival through time after exposure to ceftaroline, daptomycin, vancomycin, or the combination of daptomycin plus ceftaroline (Fig. 3). These antibiotics were chosen for their clinical relevance in the treatment of severe MRSA infection.

In assay [2] the test system is T2, Staphylococcus aureus PB0115.
T2 construct: PB0115
Conditions: PB0115, 16 h. The method, then:
as §1

Assay [3] has as its system T3, Staphylococcus aureus PB0203.
T3 construct: PB0203
Conditions: PB0203, 16 h. The method, then:
as §1

Assay [4] has as its system T4, Staphylococcus aureus PB0605.
T4 construct: PB0605
To be noted: PB0605, 16 h. The method, then:
as §1

The test system of assay [5] is T5, Staphylococcus aureus PB0609.
T5 construct: PB0609
Conditions: PB0609, 16 h. The method, then: as §1

Assay [6] concerns T6, Staphylococcus aureus PB0801.
T6 construct: PB0801
To be noted: PB0801, 16 h. The method, then:
as §1

Assay [7] deals with T7, Staphylococcus aureus PB0803.
T7 construct: PB0803
To be noted: PB0803, 16 h. The method, then: as §1

For assay [8], the system named is T8, Staphylococcus aureus PB0805.
T8 construct: PB0805
Conditions: PB0805, 16 h. The method, then:
as §1

Assay [9] deals with T9, Staphylococcus aureus PB0903.
T9 construct: PB0903
To be noted: PB0903, 16 h. The method, then: as §1

The test system of assay [10] is T10, Staphylococcus aureus PB1407.
T10 construct: PB1407
To be noted: PB1407, 16 h. The method, then:
as §1

For assay [11], the system named is T11, Staphylococcus aureus PB1408.
T11 construct: PB1408
Conditions: PB1408, 16 h. The method, then: as §1

Turning to `CCO/N=C(\C(=O)N[C@@H]1C(=O)N2C(C(=O)[O-])=C(Sc3nc(-c4cc[n+](C)cc4)cs3)CS[C@H]12)c1nsc(N)n1` [Ceftaroline], the MIC in assay [1] (replicate 1), in assay [1] (replicate 2), in [2] (replicate 1), in [2] (replicate 2), in [3] (replicate 1) and in assay [3] (replicate 2) was 0.5 µg/mL in each case. The MIC in assay [4] (replicate 1) was found to be 0.25 µg/mL; in assay [4] (replicate 2) it was 0.25 µg/mL; in [5] (replicate 1), 0.25 µg/mL; in [5] (replicate 2), 0.25 µg/mL; in [6] (replicate 1), 0.5 µg/mL; in assay [6] (replicate 2), 0.5 µg/mL. In addition, the MIC in assay [7] (replicate 1), in assay [7] (replicate 2), in assay [8] (replicate 1), in assay [8] (replicate 2), in assay [9] (replicate 1) and in [9] (replicate 2) was 0.5 µg/mL in each case. For the same compound, the MIC in assay [10] (replicate 1), in [10] (replicate 2), in assay [11] (replicate 1) and in [11] (replicate 2) was 0.5 µg/mL each time.
For the compound `CCCCCCCCCC(=O)N[C@@H](Cc1c[nH]c2ccccc12)C(=O)N[C@H](CC(N)=O)C(=O)N[C@@H](CC(=O)O)C(=O)N[C@@H]1C(=O)NCC(=O)N[C@@H](CCCN)C(=O)N[C@@H](CC(=O)O)C(=O)N[C@H](C)C(=O)N[C@@H](CC(=O)O)C(=O)NCC(=O)N[C@H](CO)C(=O)N[C@@H]([C@H](C)CC(=O)O)C(=O)N[C@@H](CC(=O)c2ccccc2N)C(=O)O[C@@H]1C` [Daptomycin], the MIC came to 1 µg/mL in assay [1] (replicate 1); 1 µg/mL in [1] (replicate 2); 2 µg/mL in assay [2] (replicate 1); 2 µg/mL in assay [2] (replicate 2); 1 µg/mL in assay [3] (replicate 1); 1 µg/mL in assay [3] (replicate 2). Besides, the MIC came to 1 µg/mL in assay [4] (replicate 1); 2 µg/mL in assay [4] (replicate 2); 1 µg/mL in assay [5] (replicate 1); 1 µg/mL in assay [5] (replicate 2); 1 µg/mL in [6] (replicate 1); 1 µg/mL in assay [6] (replicate 2). The MIC in [7] (replicate 1) is 2 µg/mL; in [7] (replicate 2) it was 2 µg/mL; in [8] (replicate 1), 1 µg/mL; in assay [8] (replicate 2), 1 µg/mL; in assay [9] (replicate 1), 2 µg/mL; in [9] (replicate 2) it was 2 µg/mL. Further, the MIC in assay [10] (replicate 1), in assay [10] (replicate 2), in assay [11] (replicate 1) and in assay [11] (replicate 2) was 2 µg/mL in each case.
For `CC(=O)NC[C@H]1CN(c2ccc(N3CCOCC3)c(F)c2)C(=O)O1` [Linezolid], the MIC in assay [1] (replicate 1), in assay [1] (replicate 2), in assay [2] (replicate 1), in assay [2] (replicate 2), in [3] (replicate 1) and in assay [3] (replicate 2) was 4 µg/mL in each case. Further, the MIC in assay [4] (replicate 1), in [4] (replicate 2), in assay [5] (replicate 1), in [5] (replicate 2), in assay [6] (replicate 1) and in [6] (replicate 2) was 4 µg/mL throughout. The MIC in assay [7] (replicate 1), in assay [7] (replicate 2), in assay [8] (replicate 1), in [8] (replicate 2), in assay [9] (replicate 1) and in [9] (replicate 2) was 4 µg/mL throughout. Besides, the MIC in assay [10] (replicate 1), in assay [10] (replicate 2), in assay [11] (replicate 1) and in assay [11] (replicate 2) was 4 µg/mL each time.
On to `CN[C@H](CC(C)C)C(=O)N[C@H]1C(=O)N[C@@H](CC(N)=O)C(=O)N[C@H]2C(=O)N[C@H]3C(=O)N[C@H](C(=O)N[C@H](C(=O)O)c4cc(O)cc(O)c4-c4cc3ccc4O)[C@H](O)c3ccc(c(Cl)c3)Oc3cc2cc(c3O[C@@H]2O[C@H](CO)[C@@H](O)[C@H](O)[C@H]2O[C@H]2C[C@](C)(N)[C@H](O)[C@H](C)O2)Oc2ccc(cc2Cl)[C@H]1O` [Vancomycin], for which the MIC in [1] (replicate 1), in assay [1] (replicate 2), in assay [2] (replicate 1), in [2] (replicate 2), in [3] (replicate 1) and in assay [3] (replicate 2) was 2 µg/mL throughout. The MIC in assay [4] (replicate 1) came out at 2 µg/mL; in assay [4] (replicate 2), 2 µg/mL; in assay [5] (replicate 1), 2 µg/mL; in assay [5] (replicate 2), 4 µg/mL; in assay [6] (replicate 1) it was 2 µg/mL; in assay [6] (replicate 2), 2 µg/mL. For the same compound, the MIC in [7] (replicate 1) came out at 2 µg/mL; in [7] (replicate 2) it was 2 µg/mL; in assay [8] (replicate 1), 1 µg/mL; in assay [8] (replicate 2), 1 µg/mL; in [9] (replicate 1), 2 µg/mL; in assay [9] (replicate 2) it was 2 µg/mL. The MIC in [10] (replicate 1) amounted to 2 µg/mL; in assay [10] (replicate 2), 2 µg/mL; in assay [11] (replicate 1) it was 4 µg/mL; in assay [11] (replicate 2), 4 µg/mL.
